Experimental data: patent publication US20090270442A1, “POLYMORPHS OF HYDROCHLORIDE SALT OF 5-(3-(ETHYLSULFONYL)PHENYL)-3,8-DIMETHYL-N-(1-METHYLPIPERIDIN-4-YL)-9H-PYRIDO[2,3-B]INDOLE-7-CARBOXAMIDE AND METHODS OF USE THEREFOR” (TAKEDA PHARMACEUTICAL COMPANY LIMITED, priority 2008, published 2009)

Test: DI water slurry during the concurrent process control screen
Assay type: physicochemical
Settings: several hours (2-24 hours)

For `CCS(=O)(=O)c1cccc(-c2cc(C(=O)NC3CCN(C)CC3)c(C)c3[nH]c4ncc(C)cc4c23)c1` [Form B], the “form isolated after slurry in DI water” value was “Form A was isolated”.
